Data on three compounds can be found in PMC10831786 (Virus Research, 2024).

Several values for one entry are separate records, joined by “and”; a condition that tells them apart may be missing. Equal entries are not always repeated. Structures can show the parent of a compound that is named as a salt. Where two headings read alike, the source gives them in different places.

As usually defined, the inhibition is the relative decrease from the control value, in per cent. As a reminder, the Kd is the free concentration of one partner at which half of the binding sites on the other are occupied at equilibrium, for simple one-to-one binding. The GI50 is the concentration at which growth is held to half of that of the control. In general, CC50 refers to the concentration that lowers cell viability or growth by half.

One data set deals with Vero E6 cells. The data set can be described thus: MTS assay, growth inhibition and toxicity in non-infected Vero E6 cells. The format is cell-based, African green monkey. The conditions noted are these: for Concentrations at which drug is cytotoxic: Vero E6, MTS. The method, then: (§1) Detailed methods are provided in Supplementary Information.
(§2) Vero E6 and BEC-hACE2 cells were grown to 70-80% density in their maintenance media and exposed to various concentrations of ipecac alkaloids (0.0125 – 200 µM) under standard culture conditions for 48-72 h and 24 h, respectively. Controls with varying amounts of DMSO and no DMSO were included also. Vero E6 cells were incubated with drugs in 2% FBS-EMEM, while BEC-HACE2 cells were grown and treated in complete PCS-300-03 medium with supplements. Similar treatments were also conducted using fully confluent non-growing BEC-hACE2 cells. At the end of the exposure period, MTS reagent (Promega G3580) was added at 1/5th of the medium volume and color was allowed to develop by incubation of the plates for an hour in a cell culture incubator. To stop reactions, SDS was added to a final concentration of 2% and optical density of samples was measured at 450 or 490 nm, depending on the model of spectrophotometer (PharmaciaBiotech, NJ, USA; UV spectrophotometer, model Ultrospec2000) or plate reader (Molecular Devices, CA, USA; model Filter Max F5 Multi-mode microplate reader) available at the time of experiment.
In general terms: Tetrazolium assays rely on reduction of a dye to a coloured formazan, in cell work by metabolically active cells.

Data set [1] deals with T1, l-type calcium current ICaL (Cavia porcellus, UniProt O35505).
T1 construct: from tissue; host or cells: freshly dissociated guinea pig ventricular myocytes
Kind of data set: Patch clamp recording of ICaL in guinea pig ventricular myocytes. The format is cell-based. The conditions noted are these: for IC50: GP cardiomyocytes, read-out: IC50, calcium channel (ICaL) blocking activity; for Kd: guinea pig ventricular myocytes, Langmuir isotherm, 5-60 μM, read-out: KD for inhibition of ICaL. Background: In patch-clamp work, channel activity is measured electrically.

Data set [2] deals with protein synthesis in BEC-hACE2 cells. The data set can be described thus: Puromycin pulse labeling, protein synthesis in cultured BEC-hACE2 cells. The format is cell-based, human. As to conditions: for inhibition at 1 µM: BEC-hACE2, 1 μM.
Data set [3] deals with BEC-hACE2 cells. The data set can be described thus: Sulforhodamine B (SRB) assay in non-infected BEC-hACE2 cells. The format is cell-based, human. As to conditions: for SRB, TGI / GI50: BEC-hACE2, 24 h; for GI50: read-out: SRB, GI50. The method, then:
as §1
This method has been used by the National Cancer Institute to evaluate drug candidates for their activities as growth inhibitors and toxins in human cancer cell lines. NCI’s protocols for SRB assay were strictly followed^81, 82. On the day of exposure (Day 0), several wells of untreated cells were fixed by addition of trichloroacetic acid (TCA, 10% V/V) and incubated for one hour at 4°C. The supernatant was discarded, wells washed five times with tap water and then air-dried. Samples were stored at room temperature until cells exposed to ipecac alkaloids or DMSO for 24 h were fixed in a similar manner. For color development, 500 µl of 0.4% SRB reagent prepared in 1% acetic acid was added to fixed cells and samples were incubated at room temperature for 15 min with gentle rocking. Unbound dye was removed by five washes with 1% acetic acid and plates were air-dried. Trizma base (10 mM) was used to dissolve the stain and absorbance was measured at 515 nm using a spectrophotometer. By comparing absorption values obtained at day 0 to the signal at day 1, with and without drugs, this protocol permits distinguishing growth inhibition from toxicity of the test compounds.
(In SRB staining, fixed cells bind dye roughly in proportion to their protein.)

Data set [4] concerns BEC-hACE2 cells. Kind of data set: MTS assay, growth inhibition and toxicity in non-infected BEC-hACE2 cells. The conditions noted are these: for MTS, TGI (beginning of the plateau): BEC-hACE2, 24 h. The format is cell-based, human. How it is done: as §1, §2
In a further data set the test system is SARS-CoV-2. The data set can be described thus: Antiviral activity against SARS-CoV-2 in BEC-hACE2 cells (RT-qPCR).
The next data set relates to HCoV-OC43. The data set can be described thus: Antiviral activity against HCoV-OC43 in Vero E6 cells (RT-qPCR of N-gene). It is filed as cell-based. How it is done:
Vero E6 cells (∼5 × 10^4 cells/cm^2 in 24-well plates) were infected with […] at MOI of 20 genomes per cell in 2 % FBS-EMEM at 33 °C, 5 % CO2 with gently mixing for 2 h. Infection medium was removed, cells were washed with fresh medium followed by the addition of compounds at indicated concentrations in 2 % FBS-EMEM. After 72 h, 100 µL of medium was collected and stored at −80 °C for viral RNA isolation and RT-qPCR analysis as detailed below. Drugs were added to the medium prior to and after viral absorption for comparison.
HCoV-OC43 RNA was isolated from 100 µL of medium using Quick-RNA Viral Kit-DX (Zymo Research, CA, USA; R1035). The relative amount of viral genomic RNA was determined with Luna Universal One-Step RT-qPCR Kit (New England Biolabs, MA, USA; E3005). […]
RT-qPCR cycles were set for 20 min at 55 °C, 1 min at 95 °C followed by 45 cycles of 95 °C for 10 s, 48 °C for 30 s and 60 °C for 1 min. The threshold cycle (Ct) for each sample was determined using the Opticon Monitor 3 Program (BioRad). Drug effects on viral propagation were evaluated assuming that a difference of one cycle corresponds to a two-fold difference in the number of copies of viral RNA. Ct values obtained for drug-free samples were considered as 100 % viral propagation.

The mark [5] stands for this setting: Homo sapiens, read-out: Protein synthesis inhibition,%.
Where [6] appears, read: Severe acute respiratory syndrome coronavirus 2, read-out: Anti-SARS-CoV2, IC50, subconfluent BEC-hACE2, drug after viral absorption, 24 hpi.
The mark [7] stands for this setting: Severe acute respiratory syndrome coronavirus 2, read-out: Anti-SARS-CoV-2 IC50, BEC-hACE2, 24 hpi.
Setting [8] is: Betacoronavirus 1, OC43, Vero C1008, 72 h, Vero E6, 72 h, read-out: Antiviral IC50.
The mark [9] stands for this setting: Betacoronavirus 1, OC43, Vero C1008, Vero E6, drug added after viral absorption, 72 hpi, read-out: Antiviral IC50.

T1 sequence (O35505 whole entry): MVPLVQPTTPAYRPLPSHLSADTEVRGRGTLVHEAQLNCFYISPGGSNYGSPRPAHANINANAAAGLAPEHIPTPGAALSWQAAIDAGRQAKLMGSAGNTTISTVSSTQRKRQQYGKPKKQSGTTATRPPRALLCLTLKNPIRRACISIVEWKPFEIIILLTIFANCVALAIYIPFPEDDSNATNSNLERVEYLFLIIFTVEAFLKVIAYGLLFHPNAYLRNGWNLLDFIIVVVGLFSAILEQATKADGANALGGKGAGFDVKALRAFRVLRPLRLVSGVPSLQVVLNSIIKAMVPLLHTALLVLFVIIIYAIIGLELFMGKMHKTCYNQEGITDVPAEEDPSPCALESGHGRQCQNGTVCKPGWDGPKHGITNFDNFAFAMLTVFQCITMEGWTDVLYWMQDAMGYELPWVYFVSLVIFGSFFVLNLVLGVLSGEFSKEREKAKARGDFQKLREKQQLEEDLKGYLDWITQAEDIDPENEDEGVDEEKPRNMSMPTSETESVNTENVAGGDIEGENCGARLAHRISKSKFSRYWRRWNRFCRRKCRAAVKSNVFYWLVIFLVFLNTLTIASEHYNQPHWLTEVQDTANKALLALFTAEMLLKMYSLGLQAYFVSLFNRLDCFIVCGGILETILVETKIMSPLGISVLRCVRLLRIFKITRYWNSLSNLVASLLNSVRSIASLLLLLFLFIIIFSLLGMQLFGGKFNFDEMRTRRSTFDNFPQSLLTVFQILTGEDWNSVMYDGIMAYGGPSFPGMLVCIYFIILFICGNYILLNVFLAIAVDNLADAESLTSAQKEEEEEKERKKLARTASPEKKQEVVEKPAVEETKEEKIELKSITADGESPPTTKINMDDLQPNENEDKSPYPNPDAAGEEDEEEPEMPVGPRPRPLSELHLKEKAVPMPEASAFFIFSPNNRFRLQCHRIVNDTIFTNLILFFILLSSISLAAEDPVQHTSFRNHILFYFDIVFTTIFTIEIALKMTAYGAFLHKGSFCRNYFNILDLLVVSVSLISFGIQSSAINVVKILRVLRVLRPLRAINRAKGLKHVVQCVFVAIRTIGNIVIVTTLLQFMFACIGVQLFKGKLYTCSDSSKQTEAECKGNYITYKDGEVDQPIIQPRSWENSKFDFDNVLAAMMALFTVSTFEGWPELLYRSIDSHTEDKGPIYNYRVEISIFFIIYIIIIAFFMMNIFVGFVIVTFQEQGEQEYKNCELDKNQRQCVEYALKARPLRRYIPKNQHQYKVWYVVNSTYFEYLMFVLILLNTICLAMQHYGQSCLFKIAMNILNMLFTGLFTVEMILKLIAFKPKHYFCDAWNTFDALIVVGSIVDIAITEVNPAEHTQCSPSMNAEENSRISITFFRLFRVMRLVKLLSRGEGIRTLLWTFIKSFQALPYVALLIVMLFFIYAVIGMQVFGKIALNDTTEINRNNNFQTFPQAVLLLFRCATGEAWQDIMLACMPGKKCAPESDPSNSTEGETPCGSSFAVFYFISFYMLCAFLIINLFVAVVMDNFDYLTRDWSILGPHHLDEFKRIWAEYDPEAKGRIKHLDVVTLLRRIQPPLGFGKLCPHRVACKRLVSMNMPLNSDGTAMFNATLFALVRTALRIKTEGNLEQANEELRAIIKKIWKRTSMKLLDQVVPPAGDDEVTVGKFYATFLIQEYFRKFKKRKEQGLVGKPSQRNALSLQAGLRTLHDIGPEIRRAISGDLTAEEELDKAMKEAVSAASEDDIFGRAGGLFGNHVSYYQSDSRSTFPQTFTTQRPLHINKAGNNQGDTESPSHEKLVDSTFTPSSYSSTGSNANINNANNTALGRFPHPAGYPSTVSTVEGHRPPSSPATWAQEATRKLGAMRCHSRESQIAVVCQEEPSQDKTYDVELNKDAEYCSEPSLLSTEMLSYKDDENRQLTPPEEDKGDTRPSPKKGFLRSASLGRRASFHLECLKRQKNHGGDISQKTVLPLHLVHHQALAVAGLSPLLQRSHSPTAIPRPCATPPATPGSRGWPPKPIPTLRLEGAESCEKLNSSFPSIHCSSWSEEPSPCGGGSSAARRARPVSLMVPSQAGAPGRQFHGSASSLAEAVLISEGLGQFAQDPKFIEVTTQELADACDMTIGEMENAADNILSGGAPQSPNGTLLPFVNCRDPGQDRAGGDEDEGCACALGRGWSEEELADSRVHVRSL

Consider `CC[C@H]1CN2CCc3cc(OC)c(OC)cc3[C@@H]2C[C@@H]1C[C@H]1NCCc2cc(OC)c(OC)cc21` [Emetine, 2H-Benzoaquinolizine, 3-ethyl-1,3,4,6,7,11b-hexahydro-9,10-dimethoxy-2-(1R)-1,2,3,4-tetrahydro-6,7-dimethoxy-1-isoquinolinylmethyl-, dihydrochloride, (2S,3R,11bS)-, reference compound], for which, in the data set on Vero E6 cells, the “Concentrations at which drug is cytotoxic” value is listed as “higher than 10 μM”. In addition, in data set [1] (0.5 μM), the “Impact on ICaL” value is on record as 1%. The inhibition at 5 µM in data set [1] (5 μM) is approximately 10%. Further, the IC50 in data set [1] was ~57000 nM and 40000 to 60000 nM; in data set [2] (Homo sapiens, read-out: IC50, protein synthesis), approximately 200 nM; in data set [2] (Homo sapiens, BEC-hACE2, read-out: IC50, protein synthesis inhibition), approximately 120 nM; in the data set with SARS-CoV-2 (setting [6]), 52 ± 3 nM; with SARS-CoV-2 (setting [7]) it was approximately 52 nM; in the data set on SARS-CoV-2 (read-out: Anti-SARS-CoV-2 IC50, BEC-hACE2, 24 hpi), 50 to 100 nM. For the same compound, the IC50 is 40 to 60 nM in the data set with HCoV-OC43 (setting [8]); 44 ± 2 nM in the data set with HCoV-OC43 (Betacoronavirus 1, OC43, Vero C1008, Vero E6, drug 1 h before viral absorption and 72 h after infection (1 hbi/72 hpi), read-out: Antiviral IC50); 40 ± 2 nM in the data set on HCoV-OC43 (setting [9]). The “Estimated reduction in ICaL” value in data set [1] (GP ventricular myocytes, assuming 25 µM) was “over thirty-three percent”. Besides, the Kd in data set [1] came to 57000 nM. Moreover, in data set [2] (setting [5]), the inhibition at 0.05 µM came to 7%. Also, the inhibition at 0.1 µM in data set [2] (setting [5]) is 30%. In addition, the inhibition at 0.3 µM in data set [2] (setting [5]) came out at 80%. For the same compound, the inhibition at 1000 µM in data set [2] (setting [5]) came out at 97%. The inhibition at 0.5 µM in data set [2] (Homo sapiens, 0.5 μM, read-out: Inhibition of translation activity in host cells) was not below 90%; in the data set with SARS-CoV-2 (Severe acute respiratory syndrome coronavirus 2, read-out: Inhibition of viral propagation), not below 90%. In data set [2] (Homo sapiens), this compound had an inhibition at 1 µM of 97%. In data set [2] (Homo sapiens, BEC-hACE2, 10 μM), at 10 µM the inhibition was 100%. Besides, the “SRB, TGI” value with BEC-hACE2 cells [3] was 250 to 500 nM; in the data set on BEC-hACE2 cells [3] (listed as EMT), “∼ 0.25–0.5 μM”. Besides, the GI50 in the data set on BEC-hACE2 cells [3] (Homo sapiens, 24 h) turned out to be 110 nM; with BEC-hACE2 cells [3] (listed as EMT), 112 ± 22 nM. Besides, the “MTS, TGI (beginning of the plateau)” value with BEC-hACE2 cells [4] is 125 nM. Also, the “MTS, nature of the effect” value in the data set on BEC-hACE2 cells [4] (BEC-hACE2, at 100 μM) is listed as “cytostatic”.
Turning to `CC[C@H]1CN2CCc3cc(OC)c(OC)cc3[C@@H]2C[C@@H]1C[C@@H]1NCCc2cc(OC)c(OC)cc21.Cl.Cl` [Isoemetine, 2H-Benzoaquinolizine, 3-ethyl-1,3,4,6,7,11b-hexahydro-9,10-dimethoxy-2-(1S)-1,2,3,4-tetrahydro-6,7-dimethoxy-1-isoquinolinylmethyl-, dihydrochloride, (2S,3R,11bS)-], the half-maximal cytotoxic concentration (CC50) stood at 114000 ± 13100 nM in the data set on Vero E6 cells (MTS, 72 h, read-out: Fifty percent effect (CC50) in non-infected Vero E6) and 100000 nM in the data set on BEC-hACE2 cells [4] (sub-confluent BEC-hACE2, 24 h, read-out: MTS, CC50 (50 % effect)). For the same compound, the Kd in data set [1] came to 42000 nM. Moreover, the “Protein synthesis inhibition,%” value in data set [2] (BEC-hACE2, 10 μM, 10 µM) is 20%; in data set [2] (BEC-hACE2, 10 μM, listed as ISOEMT, 10 µM), 18%; in data set [2] (BEC-hACE2, 30 μM, 30 µM) it was 50%; in data set [2] (BEC-hACE2, 30 μM, listed as ISOEMT, 30 µM), 47%. Further, in the data set with BEC-hACE2 cells [3], the “SRB, TGI” value is approximately 200000 nM. Further, the GI50 with BEC-hACE2 cells [3] was found to be 19400 ± 3860 nM. Also, the “SRB, nature of the effect” value in the data set with BEC-hACE2 cells [3] (BEC-hACE2, at ∼200 μM) is reported as “toxic”. For the same compound, the “MTS, nature of the effect” value with BEC-hACE2 cells [4] (BEC-hACE2, at 100 μM) is on record as “cytotoxic”. In the data set with BEC-hACE2 cells [4] (sub-confluent BEC-hACE2, 24 h), the “Concentrations at which cells are affected (MTS)” value is reported as “above 50 μM”. For the same compound, the IC50 with SARS-CoV-2 (read-out: Anti-SARS-CoV2, IC50, subconfluent BEC-hACE2, drug after viral absorption, 24 hpi) is 16500 nM; in the data set on SARS-CoV-2 (read-out: Anti-SARS-CoV2, IC50, subconfluent BEC-hACE2, drug after viral absorption, 24 hpi, listed as ISOEMT), 16500 ± 6240 nM; in the data set with HCoV-OC43 (Vero E6, drug added after viral absorption, 72 hpi, read-out: Antiviral IC50), 1050 ± 213 nM.
On to `CCC1=C(C[C@H]2NCCc3cc(OC)c(OC)cc32)C[C@H]2c3cc(OC)c(OC)cc3CCN2C1` [DHE4, 4H-Benzo[a]quinolizine, 3-ethyl-1,6,7,11b-tetrahydro-9,10-dimethoxy-2-[[(1R)-1,2,3,4-tetrahydro-6,7-dimethoxy-1-isoquinolinyl]methyl]-, (11bS)-], for which the “Concentrations at which drug is cytotoxic” value with Vero E6 cells was “higher than 10 μM”. The IC50 in data set [1] was 40000 to 60000 nM; in the data set on SARS-CoV-2 (setting [6]), 88 ± 23 nM; with SARS-CoV-2 (setting [7]), 50 to 100 nM; in the data set on HCoV-OC43 (setting [8]) it was 40 to 60 nM; in the data set on HCoV-OC43 (setting [9]) it was 63 ± 4 nM; in the data set on HCoV-OC43 (Betacoronavirus 1, OC43, Vero C1008, read-out: Antiviral IC50, Vero E6, drug 1 h before viral absorption and 72 h after infection (1 hbi/72 hpi)), 66 ± 6 nM. Moreover, the Kd in data set [1] was found to be 54000 nM. In data set [2] (Homo sapiens), this compound registered an inhibition at 1 µM of 97%. Moreover, the GI50 was 62 ± 17 nM in the data set with BEC-hACE2 cells [3] and 60 nM with BEC-hACE2 cells [3] (Homo sapiens, 24 h). In addition, the “MTS, TGI (beginning of the plateau)” value with BEC-hACE2 cells [4] was 125 nM. For the same compound, the “MTS, decrease” value in the data set with BEC-hACE2 cells [4] (BEC-hACE2, at 100 μM) came out at 40%. Further, the “MTS, nature of the effect” value in the data set with BEC-hACE2 cells [4] (BEC-hACE2, at 100 μM) is on record as “cytostatic”. For the same compound, the “MTS, CC50 (50 % effect)” value with BEC-hACE2 cells [4] (sub-confluent BEC-hACE2, 24 h) is “Effect not reached”. Further, the “SI from MTS CC50 (50 % effect)” value with SARS-CoV-2 (SARS-CoV-2, BEC-hACE2) is “exceed 1500”. Also, the “Selectivity index, (SI) CC50/IC50” value in the data set on HCoV-OC43 (HCoV-OC43, Vero E6, 72 hpi) stood at 52.
